Results as given in publication PMC11895359 (Alzheimer's Research & Therapy, 2025).
Values joined by “and” are separate entries in the source; they are usually repeats but may differ in a detail not shown here. Identical values can stand only once. Like-named read-outs stand apart in the source and are kept apart here.

Tests used:
[1] = system: muscle regeneration; conditions: aged mouse models; cited from earlier work
[2] = target: nicotinamide N-methyl transferase; conditions: competes with nicotinamide; cited from earlier work
[3] = system: nicotinamide N-methyl transferase; conditions: cited from earlier work
[4] = LC/MS measurement of CSF nicotinamide and metabolites in NEAT trial participants; conditions: for Kp at 12 months / concentration at 12 months: 1500 mg; for Kp at 12 months: CSF methyl-nicotinamide as percent of plasma methyl-nicotinamide
Experimental: CSF samples were collected at 0 and 12 months.
The injection volume was 10 μL in triplicate.
(§1) We also measured the within-participant association between analytes. […] All bar graphs show mean and standard errors.

[5] = cited from earlier work
[6] = LC/MS measurement of plasma nicotinamide and metabolites in NEAT trial participants; conditions: for concentration at 0 months: Plasma analyte concentration, this work baseline; for Plasma measure: obtained simultaneously with nicotinamide by LC/MS
Text: (§2) The NEAT trial participants were recruited at UCLA and UC Irvine and were required to meet eligibility criteria that included clinical criteria for mild cognitive impairment or mild dementia due to AD, confirmed by a CSF biomarker (CSF amyloid beta 42 (Aβ42) ≤ 200 pg/mL or a ratio of total tau to Aβ42 ≥ 0.39) [9]. […] Blood was collected from all participants at 0, 6, and 12 months after overnight fasting and plasma rapidly obtained. CSF samples were collected at 0 and 12 months. Plasma and CSF samples were stored at −80 °C until further processing. All samples were included in analysis, with an interval from last dose of drug or placebo ranging from 6 to 432 h.
(§3) Each calibration dilution contained IS at a constant concentration of 1 μM. IS was also added to each patient sample to a final concentration of 0.5 μM. All solutions and QC samples were stored at −20 °C. The lower limit of quantification for each analyte was determined by finding the lowest calibration curve concentration that could both be distinguished with 95% confidence from blank readings and have a signal-to-noise ratio greater than 8 to 1 [10].
(§4) Protein was precipitated by adding 160 μL of −20 °C 99.7% acetonitrile-0.3% formic acid to the IS-sample mix. Samples were centrifuged for 20 min at 4 °C at 17,000 g. 40 μL of the supernatant was then diluted fivefold with 200 μL of 0.3% formic acid in an autosampler well plate (Waters186002643). All plasma and CSF analytes were determined simultaneously for groups of 4–20 participants from the 46 participants without knowledge of their treatment assignment.
(§5) Samples were analyzed on a Waters Acquity UPLC Quattro Premier mass spectrometer in triple quadrupole electrospray positive (ESI +) mode with an Acquity CSH™ Fluoro-Phenyl (2.1 × 50 mm, 1.7 μm) column. For liquid chromatography separation, we modified the method of Chu et al. (2021). We used 0.3% formic acid in water as the mobile A phase, and 99.7% acetonitrile/0.3% formic acid as the mobile B phase. The injection volume was 10 μL in triplicate. The sample elution gradient was programmed as 0 – 0.5 min. in 100% A; 0.5–2.5 min, linear to 95% B; re-equilibrated from 2.5–4.5 min. in 100% A. The flow rate was 0.3 mL/min, and column temperature was 50 °C.
(§6) Microsoft Excel (Version 16.82, Microsoft, Redmond, WA, USA) was used for data management and statistical analysis. Treatment allocation was unblinded after all sample analyte levels were completed by mass spectrometry. We compared the randomized placebo and treatment groups for main analyte effects by two-tailed unpaired Student’s T Tests, with significance at p < 0.05, without adjustment for multiple comparisons in this exploratory analysis. […] We also measured the within-participant association between analytes. […] All bar graphs show mean and standard errors.

[7] = system: mouse models of Alzheimer’s disease; conditions: mouse models of AD; cited from earlier work
[8] = system: total tau; assay: Change in CSF total tau in NEAT trial participants; format: in vivo, human; conditions: mean ± S.E.
Text: as §1

[9] = system: Aβ40; assay: Change in CSF Aβ40 in NEAT trial participants; format: in vivo, human; conditions: mean ± S.E.
Text: as §1

[10] = system: pTau181; assay: Change in CSF pTau181 in NEAT trial participants; format: in vivo, human; conditions: CSF nicotinamide elevated, n = 6, 12 months, mean ± S.E.
Text: as §1

[11] = system: total tau/ Aβ42; assay: Change in CSF total tau/Aβ42 ratio in NEAT trial participants; format: in vivo, human; conditions: mean ± S.E.
Text: as §1

[12] = phase 2a trial, high-dose oral nicotinamide, early AD; cited from earlier work
[13] = system: Aβ42; assay: Change in CSF Aβ42 in NEAT trial participants; format: in vivo, human; conditions: mean ± S.E.
Text: as §1

[14] = system: CSF pTau231; assay: Change in CSF pTau231 in NEAT trial participants; format: in vivo, human; design: PTAU231 Month 12, individual participant / PTAU231 change, individual participant: unit not given here
Text: as §1

[15] = system: Aβ42/40; assay: Change in CSF Aβ42/40 ratio in NEAT trial participants; format: in vivo, human; conditions: mean ± S.E.
Text: as §1

[16] = design: method as in Galla et al. 16; conditions: ref Galla et al. 16, cited from earlier work
[17] = system: Sirt1; conditions: cited from earlier work
[18] = in vivo
Text: as §2, §3, §4, §5, §6

[19] = obtained simultaneously with nicotinamide by LC/MS
[20] = n = 10, ± S.D., ref Clement et al. 14
[21] = n = 100, ± S.D., ref Seyedsadjadi et al. 15
[22] = CSF nicotinamide elevated, n = 6, 12 months
[23] = n = 659, ± S.D., ref Chu et al. 12
[24] = TX 1500mg, values below limit of quantification set to 0.1 uM, listed as 1-Methynicotinamide

SMILES: C[n+]1cccc2c(N)cccc21 [5-amino-1-methylquinoline]
- Muscle regeneration [1]: improve muscle regeneration

SMILES: COc1ccc(C(N)=O)cn1 [JBSNF-000088, 6-methyloxy-nicotinamide]
- IC50 [2]: 1800 nM
- Reduction of methyl-nicotinamide in mouse plasma [3]: 50%
- Effect on body weight ([3]; mouse): reduced body weight

SMILES: NC(=O)c1ccc[n+]([C@@H]2O[C@H](COP(=O)([O-])OP(=O)(O)OC[C@H]3O[C@@H](n4cnc5c(N)ncnc54)[C@H](O)[C@@H]3O)[C@@H](O)[C@H]2O)c1 [NAD^+, Nicotinamide Adenine Dinucleotide]
- CSF measure [4, 19]: below our limits of detection
- Plasma analyte concentration [5, 20]: 0.008 ± 0.02 µM
- Plasma analyte concentration [5, 21]: 0.023 ± 0.012 µM
- concentration at 0 months ([6]; human, plasma, baseline before treatment, n = 47, ± S.D.): < 1.2 µM
- Plasma measure [6]: below our limits of detection
- Plasma NAD+ (not measurable above) ([6]; this work): < 1.2 nM

SMILES: NC(=O)c1cccnc1 [Nicotinamide]
- Cognitive function [7]: improved cognitive function
- Change in total tau [8, 22]: -35 ± 84 pg/mL
- Change in total tau ([8]; all treated, n = 19, 12 months): -8.6 ± 54 pg/mL
- Change in Aβ40 [9, 22]: -1823 ± 1094 pg/mL
- Change in Aβ40 ([9]; all treated, n = 19, 12 months): -2307 ± 593 pg/mL
- Change in pTau181 [10]: 1.1 ± 14 pg/mL
- Change in total tau/ Aβ42 [11, 22]: 35 ± 15%
- Change in total tau/ Aβ42 ([11]; all treated, n = 19, 12 months): 41 ± 7%
- Safety and tolerability [12]: good safety and tolerability
- Change in Aβ42 [13, 22]: -75 ± 44 pg/mL
- Change in Aβ42 ([13]; all treated, n = 19, 12 months): -127 ± 38 pg/mL
- Plasma analyte concentration [5, 20]: 38 ± 11 µM
- Plasma analyte concentration ([5]; n = 54, ± S.D., ref Ibrahim et al. 13): 1.2 ± 0.14 µM
- Plasma analyte concentration [5, 21]: 32 ± 11 µM
- Plasma analyte concentration [5, 23]: 0.9 ± 0.02 µM
- PTAU231 Month 12, individual participant ([14]; TX 1500mg): 34.3 and 98.8 and 66 and 31.3 and 12.2 and 14.6 and 15.1 and 68.8 and 21.2 and 10.9 and 29 and 49.5 and 6.6 and 52.5 and 20.1 and 65.3 and 41 and 6.2 and 37
- PTAU231 change, individual participant ([14]; TX 1500mg, Month 12 minus baseline): -12 and 24 and -20 and -24.5 and -2.9 and -10.4 and -17.7 and 29.5 and -11.6 and 3.1 and 7.6 and 1.5 and -0.3 and -15 and -25.2 and -8.5 and -1.5 and -5.3
- PTAU231 % change, individual participant ([14]; TX 1500mg, Month 12 vs baseline): -26% and 32% and -23% and -44% and -19% and -42% and -54% and 75% and -35% and 40% and 36% and 3% and -4% and -22% and -1% and -28% and -17% and -13%
- Percent Change in pTau231 ([14]; all treated participants, 12 months): -9%
- Decrease of pTau231 from baseline ([14]; six treated participants with elevated CSF nicotinamide, 12 months): 34%
- Percent Change in pTau231 ([14]; treated, CSF nicotinamide elevated (six participants), 12 months): -34%
- Increase of pTau231 from baseline ([14]; treated, CSF nicotinamide unelevated group, 12 months): 3%
- Percent Change in pTau231 ([14]; treated, CSF nicotinamide unelevated, 12 months): 3%
- Percent Change in pTau231 ([14]; treated, plasma nicotinamide elevated, 12 months): -4%
- Percent Change in pTau231 ([14]; treated, plasma nicotinamide unelevated, 12 months): -15%
- Percent of treated participants with elevated plasma nicotinamide ([6]; 12 months, n = 14 of 23): 61%
- concentration at 12 months ([6]; human, plasma, oral, 1500 mg, Mean plasma nicotinamide, drug elevated subgroup, treated, plasma nicotinamide > […], 12 months): 86 µM
- concentration at 12 months ([6]; human, plasma, oral, 1500 mg, Mean plasma nicotinamide, drug unelevated subgroup, treated, plasma nicotinamide ≤ […], 12 months): 0.7 µM
- concentration at 27 h ([6]; human, plasma, oral, 1500 mg, Plasma nicotinamide, one participant, treated, sample 27 h after last dose): 2 µM
- concentration at 6 months ([6]; human, plasma, po, 1500 mg, Mean plasma nicotinamide, nicotinamide-treated participants, 1500 mg PO BID): 73 µM
- concentration at 12 months ([6]; human, plasma, po, 1500 mg, Mean plasma nicotinamide, nicotinamide-treated participants, 1500 mg PO BID, 12 months): 52 µM
- Change in Aβ42/40 [15, 22]: −2.1 ± 4%
- Change in Aβ42/40 ([15]; all treated, n = 19, 12 months): −3.7 ± 1.7%

SMILES: C[n+]1cccc(C(N)=O)c1 [methyl-nicotinamide, 1-methyl-nicotinamide]
- Percent of treated participants with CSF methyl-nicotinamide seen ([4]; 12 months, n = 9 of 19): 47%
- Ratio of elevated plasma methyl-nicotinamide to CSF methyl-nicotinamide ([4]; 125/3.4, 12 months): 37
- CSF 1-Methynicotinamide, Month 12, individual participant [4, 24]: 0.1 µM and 5.9 µM and 6.5 µM and 4.1 µM and 5.6 µM and 5.7 µM and 1.4 µM and 1.3 µM and 6.4 µM and 7.5 µM and 9.2 µM and 3.6 µM
- CSF methyl-nicotinamide as percent of CSF nicotinamide ([4]; drug elevated subgroup, 3.4/57): 6%
- Kp at 12 months ([4]; human, in vivo, drug elevated subgroup, 3.4 vs 125 μM): 0.03
- Kp at 12 months ([4]; human, in vivo, drug unelevated subgroup, 2.4 vs plasma 37 μM): 0.06
- concentration at 12 months ([4]; human, in vivo, CSF methyl-nicotinamide range in participants with elevated level, nicotinamide treated, 12 months): 3 to 10 µM
- concentration at 12 months ([4]; human, in vivo, Mean CSF methyl-nicotinamide, CSF nicotinamide elevated subgroup, treated, 6 of 19 participants, 12 months): 3.4 µM
- concentration at 12 months ([4]; human, in vivo, Mean CSF methyl-nicotinamide, CSF nicotinamide unelevated subgroup, treated, 12 months): 2.4 µM
- concentration at 12 months ([4]; human, in vivo, Mean CSF methyl-nicotinamide, all nicotinamide-treated participants, 12 months): 3.1 µM
- concentration at 0 months ([4]; human, in vivo, CSF analyte concentration, this work baseline, baseline before treatment, n = 47): ≤ 0.1 µM
- Fold increase of mean CSF methyl-nicotinamide ([4]; treated, 12 months, vs 0.1 μM limit of quantification): at least 31 fold
- CSF analyte concentration ([16]; n = 10, ± S.D.): 0.039 ± 0.025 µM
- CSF methyl-nicotinamide ([16]; participants without AD): around 39 nM
- Plasma analyte concentration [5, 20]: 0.05 ± 0.01 µM
- Plasma analyte concentration ([5]; n = 10, ± S.D., ref Galla et al. 16): 0.185 ± 0.116 µM
- Plasma analyte concentration [5, 21]: 0.033 ± 0.012 µM
- Plasma analyte concentration [5, 23]: 0.1 ± 0.002 µM
- Sirt1 binding and stabilization [17]: binds to and stabilizes Sirt1
- Fold increase of plasma methyl-nicotinamide above baseline in 6 of 7 nicotinamide unelevated participants ([6]; 12 months): at least 127 fold
- Plasma methyl-nicotinamide relative to mean plasma nicotinamide, drug elevated subgroup ([6]; 12 months, 125/86): 1.5 fold
- Fold increase of plasma methyl-nicotinamide above baseline and placebo, drug elevated subgroup ([6]; 12 months, 125/<0.1): ≥ 1250 fold
- Plasma 1-Methynicotinamide, Month 6, individual participant [6, 24]: 72.2 µM and 6.7 µM and 98.7 µM and 8.5 µM and 73.1 µM and 120.1 µM and 30.7 µM and 77.4 µM and 114.1 µM and 160.6 µM and 61.9 µM and 130.4 µM and 151.9 µM and 186.7 µM and 248.2 µM and 186.6 µM and 191.6 µM and 68.1 µM and 186.9 µM
- Plasma 1-Methynicotinamide, Month 12, individual participant [6, 24]: 101.4 µM and 6.8 µM and 0.5 µM and 93.1 µM and 19.8 µM and 119.3 µM and 87.2 µM and 118.8 µM and 0.1 µM and 127.8 µM and 33.8 µM and 71.4 µM and 101.3 µM and 15.3 µM and 73.9 µM and 116.0 µM and 293.9 µM and 219.6 µM and 242.1 µM and 152.9 µM and 1.2 µM and 76.9 µM and 15.0 µM
- Plasma analyte concentration, this work baseline ([6]; baseline before treatment, n = 47, ± S.D.): 0.14 ± 0.03 µM
- concentration at 12 months ([6]; human, in vivo, 1500 mg BID, Mean plasma methyl-nicotinamide in 6 of 7 treated participants without measurable plasma nicotinamide, 12 months): 12.7 µM
- concentration at 12 months ([6]; human, in vivo, 1500 mg, Mean plasma methyl-nicotinamide, plasma nicotinamide elevated subgroup, treated, 12 months): 125 µM
- concentration at 12 months ([6]; human, in vivo, 1500 mg, Mean plasma methyl-nicotinamide, plasma nicotinamide unelevated subgroup, treated, 9 participants, 12 months): 37 µM
- concentration at 12 months ([6]; human, in vivo, 1500 mg, Plasma methyl-nicotinamide range in participants with elevated level, nicotinamide treated, 12 months): 6 to 294 µM
- concentration at 0 months ([6]; human, in vivo, baseline before treatment, n = 47, ± S.D.): 0.14 µM
- concentration at 6 months ([6]; human, in vivo, po, 1500 mg, Mean plasma methyl-nicotinamide, nicotinamide-treated participants, 1500 mg PO BID): 114 µM
- concentration at 12 months ([6]; human, in vivo, po, 1500 mg, Mean plasma methyl-nicotinamide, nicotinamide-treated participants, 1500 mg PO BID, 12 months): 91 µM
- Fold increase of mean plasma methyl-nicotinamide ([6]; treated, 6 and 12 months): > 600 fold

SMILES: NC(=O)c1ccc[n+]([C@@H]2O[C@H](COP(=O)([O-])O)[C@@H](O)[C@H]2O)c1 [nicotinamide mononucleotide]
- Plasma measure [18]: below our limits of detection
- CSF measure ([4]; in vivo): below our limits of detection

SMILES: O=C(O)c1cccnc1 [nicotinic acid]
- CSF measure [4, 19]: below our limits of detection
- Plasma measure [6]: below our limits of detection
